The text below walks through data of patent US11753407B2, “Compounds for treating spinal muscular atrophy” (PTC Therapeutics, Inc., priority 2012, dated 2023).

Bounds are passed on as bounds.

Data set [1] has as its system SMN2 minigene mRNA (SMN2-A minigene) in HEK293H cells. Briefly: SMN2 minigene mRNA splicing RT-qPCR assay in cultured cells. The class given is cell-based, human. The note with it: Homo sapiens, HEK293-H; concentration increasing full length SMN2 mRNA 1.5-fold relative to vehicle-treated cells; HEK293H cells with SMN2-A minigene, 24 hours, 7-point concentration data; read-out: EC1.5x for production of full length SMN2 mRNA. A digest of the protocol: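 EC1.5× = concentration raising full-length SMN2 minigene mRNA 1.5-fold over vehicle, from 7-point curves in duplicate. Stably transfected HEK293H cells exposed 24 h at 37 °C; lysates assayed by multiplex RT-qPCR, minigene FL signal normalized to GAPDH via modified ΔΔCt.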
Background: Real-time PCR tracks product formation cycle by cycle.

The test system of data set [2] is Smn protein in SMA patient fibroblast cells (GM03813). In words: Smn protein assay in cultured cells (SMN HTRF). The class given is cell-based, human. The note with it: SMA patient fibroblast cells, 48 hours; for EC1.5x for Smn protein expression: 7-point concentration curve, SMN HTRF, concentration producing 1.5 times Smn protein vs DMSO vehicle control; for maximum fold (Fold) increase of Smn protein: 7-point concentration data, fold relative to vehicle control. A digest of the protocol:
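Smn protein quantified by HTRF with anti-SMN d2/kryptate pair, 665/620 nm ratio blank-corrected, in RIPA lysates of GM03813 fibroblasts after 48 h compound exposure (7 concentrations, 3.16-fold steps, triplicates). Values: concentration producing 1.5× vehicle Smn level, and maximal fold increase.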

The term melting point denotes the temperature, or range, at which the solid turns liquid. `CCN1CCN(c2ccc3nc(-c4cc5cnc(C)cn5n4)cc(=O)n3c2)CC1` [Compound 466, 7-(4-ethylpiperazin-1-yl)-2-(6-methylpyrazolo[1,5-a]pyrazin-2-yl)-4H-pyrido[1,2-a]pyrimidin-4-one] had a melting point of 220 to 230 °C. Further, the EC (1.5-fold increase) in data set [1] is less than 0.1 µM. In addition, in data set [2], the “EC1.5x for Smn protein expression” value is “*** (an EC1.5× between >0.3 μM and ≤1 μM is indicated by three stars (***))”; the “maximum fold (Fold) increase of Smn protein” value (from here on “maximum fold (Fold) increase”) was “***** (a fold increase >1.65 is indicated by five stars (*****))”.

As for `Cc1cn2nc(-c3cc(=O)n4cc(N5CCN6CCC[C@@H]6C5)ccc4n3)cc2cn1` [Compound 467, 7-[(8aR)-hexahydropyrrolo[1,2-a]pyrazin-2(1H)-yl]-2-(6-methylpyrazolo[1,5-a]pyrazin-2-yl)-4H-pyrido[1,2-a]pyrimidin-4-one], the melting point fell in the range of 240 to 250 °C. Also, in data set [1], the EC (1.5-fold increase) is less than 0.1 µM. In addition, in data set [2], the “EC1.5x for Smn protein expression” value is “**** (an EC1.5x≤0.3 μM is indicated by four stars (****))” and the “maximum fold (Fold) increase” value is recorded as “***** (a fold increase >1.65 is indicated by five stars (*****))”.

The compound `Cc1cn2nc(-c3cc(=O)n4cc(N5CCC(N(C)C)CC5)ccc4n3)cc2cn1` [Compound 468, 7-[4-(dimethylamino)piperidin-1-yl]-2-(6-methylpyrazolo[1,5-a]pyrazin-2-yl)-4H-pyrido[1,2-a]pyrimidin-4-one] yielded a melting point of 240 to 242 °C. The EC (1.5-fold increase) in data set [1] was less than 0.1 µM. Further, in data set [2], the “EC1.5x for Smn protein expression” value is “*** (an EC1.5× between >0.3 μM and ≤1 μM is indicated by three stars (***))”; the “maximum fold (Fold) increase” value is “**** (a fold increase between >1.5 and ≤1.65 is indicated by four stars (****))”.

For `Cc1cn2nc(-c3cc(=O)n4cc(N5CCN(CCO)CC5)ccc4n3)cc2cn1` [Compound 469, 7-[4-(2-hydroxyethyl)piperazin-1-yl]-2-(6-methylpyrazolo[1,5-a]pyrazin-2-yl)-4H-pyrido[1,2-a]pyrimidin-4-one], the melting point fell in the range of 254 to 256 °C. The EC (1.5-fold increase) in data set [1] lay in the range of 0.1 to 0.3 µM. In addition, in data set [2], the “EC1.5x for Smn protein expression” value is “*** (an EC1.5× between >0.3 μM and ≤1 μM is indicated by three stars (***))”; the “maximum fold (Fold) increase” value was “***** (a fold increase >1.65 is indicated by five stars (*****))”.

With `CCCN1CCC(c2ccc3nc(-c4ccc5nc(C)cn5c4)cc(=O)n3c2)CC1` [Compound 470, 2-(2-methylimidazo[1,2-a]pyridin-6-yl)-7-(1-propylpiperidin-4-yl)-4H-pyrido[1,2-a]pyrimidin-4-one], the melting point was 159 to 161 °C. Also, the EC (1.5-fold increase) in data set [1] was less than 0.1 µM. In data set [2], the “EC1.5x for Smn protein expression” value is “**** (an EC1.5x≤0.3 μM is indicated by four stars (****))”; the “maximum fold (Fold) increase” value is “**** (a fold increase between >1.5 and ≤1.65 is indicated by four stars (****))”.

Turning to `Cc1cn2nc(-c3cc(=O)n4cc(N5CCN[C@H](C)C5)ccc4n3)cc2cn1` [Compound 472, 7-[(3R)-3-methylpiperazin-1-yl]-2-(6-methylpyrazolo[1,5-a]pyrazin-2-yl)-4H-pyrido[1,2-a]pyrimidin-4-one], the melting point is 240 to 244 °C. Besides, the EC (1.5-fold increase) in data set [1] is less than 0.1 µM. In data set [2], the “EC1.5x for Smn protein expression” value is “**** (an EC1.5x≤0.3 μM is indicated by four stars (****))” and the “maximum fold (Fold) increase” value is “***** (a fold increase >1.65 is indicated by five stars (*****))”.

In turn, `Cc1cn2nc(-c3cc(=O)n4cc(C5=CCNCC5)ccc4n3)cc2cn1` [Compound 473, 2-(6-methylpyrazolo[1,5-a]pyrazin-2-yl)-7-(1,2,3,6-tetrahydropyridin-4-yl)-4H-pyrido[1,2-a]pyrimidin-4-one] returned a melting point of 260 to 265 °C. Moreover, the EC (1.5-fold increase) in data set [1] was less than 0.1 µM. Besides, in data set [2], the “EC1.5x for Smn protein expression” value is listed as “**** (an EC1.5x≤0.3 μM is indicated by four stars (****))” and the “maximum fold (Fold) increase” value is recorded as “***** (a fold increase >1.65 is indicated by five stars (*****))”.

`Cn1cc2cc(-c3cc(=O)n4cc(C5=CCNCC5)ccc4n3)ccc2n1` [Compound 474, 2-(2-methyl-2H-indazol-5-yl)-7-(1,2,3,6-tetrahydropyridin-4-yl)-4H-pyrido[1,2-a]pyrimidin-4-one] had a melting point of 239 to 241 °C. Further, in data set [1], the EC (1.5-fold increase) was less than 0.1 µM. Further, in data set [2], the “EC1.5x for Smn protein expression” value is given as “**** (an EC1.5x≤0.3 μM is indicated by four stars (****))”; the “maximum fold (Fold) increase” value is “**** (a fold increase between >1.5 and ≤1.65 is indicated by four stars (****))”.

`CN1CCC(c2ccc3nc(-c4ccc5c(cnn5C)c4)cc(=O)n3c2)CC1` [Compound 475, 2-(1-methyl-1H-indazol-5-yl)-7-(1-methylpiperidin-4-yl)-4H-pyrido[1,2-a]pyrimidin-4-one]: the melting point lay within 216 to 218 °C. Further, the EC (1.5-fold increase) in data set [1] lay within 0.3 to 1 µM. Also, in data set [2], the “EC1.5x for Smn protein expression” value was “** (an EC1.5× between >1 μM and ≤3 μM is indicated by two stars (**))”; the “maximum fold (Fold) increase” value is “*** (a fold increase between >1.35 and ≤1.5 is indicated by three stars (***))”.

In turn, `CN1CC=C(c2ccc3nc(-c4ccc5nn(C)cc5c4)cc(=O)n3c2)CC1` [Compound 476, 2-(2-methyl-2H-indazol-5-yl)-7-(1-methyl-1,2,3,6-tetrahydropyridin-4-yl)-4H-pyrido[1,2-a]pyrimidin-4-one] displayed a melting point of 226 to 228 °C. The EC (1.5-fold increase) in data set [1] was less than 0.1 µM. In data set [2], the “EC1.5x for Smn protein expression” value is “**** (an EC1.5x≤0.3 μM is indicated by four stars (****))” and the “maximum fold (Fold) increase” value is “***** (a fold increase >1.65 is indicated by five stars (*****))”.

In the case of `CCN1CC=C(c2ccc3nc(-c4ccc5nn(C)cc5c4)cc(=O)n3c2)CC1` [Compound 477, 7-(1-ethyl-1,2,3,6-tetrahydropyridin-4-yl)-2-(2-methyl-2H-indazol-5-yl)-4H-pyrido[1,2-a]pyrimidin-4-one], the melting point was 198 to 200 °C. Further, the EC (1.5-fold increase) in data set [1] was less than 0.1 µM. Also, in data set [2], the “EC1.5x for Smn protein expression” value was “**** (an EC1.5x≤0.3 μM is indicated by four stars (****))”; the “maximum fold (Fold) increase” value is “**** (a fold increase between >1.5 and ≤1.65 is indicated by four stars (****))”.

`CCN1CCC(c2ccc3nc(-c4ccc5nc(C)cn5c4)cc(=O)n3c2)CC1` [Compound 478, 7-(1-ethylpiperidin-4-yl)-2-(2-methylimidazo[1,2-a]pyridin-6-yl)-4H-pyrido[1,2-a]pyrimidin-4-one] showed a melting point of 190 to 192 °C. Moreover, the EC (1.5-fold increase) in data set [1] is less than 0.1 µM. In addition, in data set [2], the “EC1.5x for Smn protein expression” value is listed as “**** (an EC1.5x≤0.3 μM is indicated by four stars (****))” and the “maximum fold (Fold) increase” value was “***** (a fold increase >1.65 is indicated by five stars (*****))”.

In turn, `Cc1cn2cc(-c3cc(=O)n4cc(C5=CCN(C(C)C)CC5)ncc4n3)cc2c(C)n1` [Compound 479, 2-(1,3-dimethylpyrrolo[1,2-a]pyrazin-7-yl)-7-[1-(propan-2-yl)-1,2,3,6-tetrahydropyridin-4-yl]-4H-pyrazino[1,2-a]pyrimidin-4-one] had a melting point of 220 to 222 °C. Further, the EC (1.5-fold increase) in data set [1] is less than 0.1 µM. In addition, the “maximum fold (Fold) increase” value in data set [2] was “** (a fold increase between >1.2 and ≤1.35 is indicated by two stars (**))”.
